Results as given in the supplement of paper PMC10307832.

Legend:
Experiment in all cases: relative viability (nuclei count vs DMSO), 5 days (fraction); higher = more cells survive
NCI-H1755 = system: NCI-H1755
Method in brief: (§1)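 Relative viability is defined as nuclei in treated wells over nuclei in vehicle wells. Duplicate plates were run and medians reported. Lung cancer cell lines in 1536-well plates were dosed by pin tool one day after seeding, with one drug or with a fixed anchor-drug dose plus five library-drug doses (not always all listed) in √10 steps, and nuclei were counted after 5 days.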

PC-3 [JPC-3] = system: PC-3 [JPC-3]
Method in brief: as §1

HCC-15 = system: HCC-15
Method in brief: as §1

PC-14 = system: PC-14
Method in brief: as §1

NCI-H1437 = system: NCI-H1437
Method in brief: as §1

UMC-11 = system: UMC-11
Method in brief: as §1

NCI-H3122 = system: NCI-H3122
Method in brief: as §1

IA-LM = system: IA-LM
Method in brief: as §1

A-427 = system: A-427
Method in brief: as §1

NCI-H2405 = system: NCI-H2405
Method in brief: as §1

NCI-H441 = system: NCI-H441
Method in brief: as §1

H3255 = system: H3255
Method in brief: as §1

NCI-H1915 = system: NCI-H1915
Method in brief: as §1

HCC-366 = system: HCC-366
Method in brief: as §1

NCI-H1975 = system: NCI-H1975
Method in brief: as §1

HARA = system: HARA
Method in brief: as §1

NCI-H2009 = system: NCI-H2009
Method in brief: as §1

NCI-H650 = system: NCI-H650
Method in brief: as §1

SK-LU-1 = system: SK-LU-1
Method in brief: as §1

LXF-289 = system: LXF-289
Method in brief: as §1

NCI-H460 = system: NCI-H460
Method in brief: as §1

NCI-H2023 = system: NCI-H2023
Method in brief: as §1

NCI-H596 = system: NCI-H596
Method in brief: as §1

**Q.** How did the relative viability (NCI-H1755; first compound 0.08 µM) turn out when `CCCCCCCCCCCC1=C(O)C(=O)C=C(O)C1=O` [Embelin] + C[C@@H](Oc1cc(-c2cnn(C3CCNCC3)c2)cnc1N)c1c(Cl)ccc(F)c1Cl [Crizotinib] (partner 1 µM) was run?
**A.** 0.829

**Q.** What about the relative viability (NCI-H1755; first compound 0.8 µM) of the same compound?
**A.** 0.877

**Q.** What about the relative viability (NCI-H1755; first compound 2.53 µM) of the same compound?
**A.** 0.921

**Q.** And the relative viability (NCI-H1755; first compound 8 µM)?
**A.** 0.871

**Q.** What about the relative viability (PC-3 [JPC-3]; first compound 0.08 µM) of the same compound?
**A.** 0.948

**Q.** What about the relative viability (PC-3 [JPC-3]; first compound 0.8 µM) of the same compound?
**A.** 1.01

**Q.** What about the relative viability (PC-3 [JPC-3]; first compound 2.53 µM) of the same compound?
**A.** 1.06

**Q.** What about the relative viability (PC-3 [JPC-3]; first compound 8 µM) of the same compound?
**A.** 0.987

**Q.** What about the relative viability (HCC-15; first compound 0.08 µM) of the same compound?
**A.** 0.779

**Q.** What about the relative viability (HCC-15; first compound 0.8 µM) of the same compound?
**A.** 0.852

**Q.** And the relative viability (HCC-15; first compound 2.53 µM)?
**A.** 1

**Q.** And the relative viability (HCC-15; first compound 8 µM)?
**A.** 0.907

**Q.** What about the relative viability (PC-14; first compound 0.08 µM) of the same compound?
**A.** 0.916

**Q.** What about the relative viability (PC-14; first compound 0.8 µM) of the same compound?
**A.** 0.845

**Q.** What about the relative viability (PC-14; first compound 2.53 µM) of the same compound?
**A.** 0.921

**Q.** What about the relative viability (PC-14; first compound 8 µM) of the same compound?
**A.** 0.891

**Q.** And the relative viability (NCI-H1437; first compound 0.08 µM)?
**A.** 0.988

**Q.** What about the relative viability (NCI-H1437; first compound 0.8 µM) of the same compound?
**A.** 0.898

**Q.** And the relative viability (NCI-H1437; first compound 2.53 µM)?
**A.** 1.01

**Q.** What about the relative viability (NCI-H1437; first compound 8 µM) of the same compound?
**A.** 0.452

**Q.** What about the relative viability (UMC-11; first compound 0.08 µM) of the same compound?
**A.** 0.639

**Q.** What about the relative viability (UMC-11; first compound 0.8 µM) of the same compound?
**A.** 0.618

**Q.** What about the relative viability (UMC-11; first compound 2.53 µM) of the same compound?
**A.** 0.644

**Q.** What about the relative viability (UMC-11; first compound 8 µM) of the same compound?
**A.** 0.572

**Q.** And the relative viability (NCI-H3122; first compound 0.08 µM)?
**A.** 0.296

**Q.** What about the relative viability (NCI-H3122; first compound 0.8 µM) of the same compound?
**A.** 0.293

**Q.** And the relative viability (NCI-H3122; first compound 2.53 µM)?
**A.** 0.273

**Q.** What about the relative viability (NCI-H3122; first compound 8 µM) of the same compound?
**A.** 0.282

**Q.** And the relative viability (IA-LM; first compound 0.08 µM)?
**A.** 0.718

**Q.** And the relative viability (IA-LM; first compound 0.8 µM)?
**A.** 0.85

**Q.** What about the relative viability (IA-LM; first compound 2.53 µM) of the same compound?
**A.** 0.729

**Q.** What about the relative viability (IA-LM; first compound 8 µM) of the same compound?
**A.** 0.743

**Q.** What about the relative viability (A-427; first compound 0.08 µM) of the same compound?
**A.** 0.905

**Q.** And the relative viability (A-427; first compound 0.8 µM)?
**A.** 0.862

**Q.** What about the relative viability (A-427; first compound 2.53 µM) of the same compound?
**A.** 1.03

**Q.** What about the relative viability (A-427; first compound 8 µM) of the same compound?
**A.** 0.881

**Q.** What about the relative viability (NCI-H2405; first compound 0.08 µM) of the same compound?
**A.** 0.908

**Q.** And the relative viability (NCI-H2405; first compound 0.8 µM)?
**A.** 0.976

**Q.** What about the relative viability (NCI-H2405; first compound 2.53 µM) of the same compound?
**A.** 0.892

**Q.** What about the relative viability (NCI-H2405; first compound 8 µM) of the same compound?
**A.** 0.955

**Q.** What about the relative viability (NCI-H441; first compound 0.08 µM) of the same compound?
**A.** 0.749

**Q.** What about the relative viability (NCI-H441; first compound 0.8 µM) of the same compound?
**A.** 0.971

**Q.** What about the relative viability (NCI-H441; first compound 2.53 µM) of the same compound?
**A.** 0.788

**Q.** And the relative viability (NCI-H441; first compound 8 µM)?
**A.** 0.901

**Q.** What about the relative viability (H3255; first compound 0.08 µM) of the same compound?
**A.** 0.86

**Q.** And the relative viability (H3255; first compound 0.8 µM)?
**A.** 0.979

**Q.** And the relative viability (H3255; first compound 2.53 µM)?
**A.** 0.875

**Q.** What about the relative viability (H3255; first compound 8 µM) of the same compound?
**A.** 1.03

**Q.** And the relative viability (NCI-H1915; first compound 0.08 µM)?
**A.** 0.988

**Q.** What about the relative viability (NCI-H1915; first compound 0.8 µM) of the same compound?
**A.** 1.03

**Q.** What about the relative viability (NCI-H1915; first compound 2.53 µM) of the same compound?
**A.** 0.993

**Q.** And the relative viability (NCI-H1915; first compound 8 µM)?
**A.** 0.97

**Q.** What about the relative viability (HCC-366; first compound 0.08 µM) of the same compound?
**A.** 0.633

**Q.** And the relative viability (HCC-366; first compound 0.8 µM)?
**A.** 0.572

**Q.** And the relative viability (HCC-366; first compound 2.53 µM)?
**A.** 1.02

**Q.** And the relative viability (HCC-366; first compound 8 µM)?
**A.** 0.637

**Q.** What about the relative viability (NCI-H1975; first compound 0.08 µM) of the same compound?
**A.** 1.1

**Q.** And the relative viability (NCI-H1975; first compound 0.8 µM)?
**A.** 0.999

**Q.** What about the relative viability (NCI-H1975; first compound 2.53 µM) of the same compound?
**A.** 1

**Q.** What about the relative viability (NCI-H1975; first compound 8 µM) of the same compound?
**A.** 1.04

**Q.** And the relative viability (HARA; first compound 0.08 µM)?
**A.** 1.03

**Q.** What about the relative viability (HARA; first compound 0.8 µM) of the same compound?
**A.** 1.08

**Q.** What about the relative viability (HARA; first compound 2.53 µM) of the same compound?
**A.** 1.12

**Q.** And the relative viability (HARA; first compound 8 µM)?
**A.** 1.23

**Q.** What about the relative viability (NCI-H2009; first compound 0.08 µM) of the same compound?
**A.** 1.04

**Q.** And the relative viability (NCI-H2009; first compound 0.8 µM)?
**A.** 1.12

**Q.** And the relative viability (NCI-H2009; first compound 2.53 µM)?
**A.** 1.11

**Q.** What about the relative viability (NCI-H2009; first compound 8 µM) of the same compound?
**A.** 1.06

**Q.** What about the relative viability (NCI-H650; first compound 0.08 µM) of the same compound?
**A.** 0.772

**Q.** And the relative viability (NCI-H650; first compound 0.8 µM)?
**A.** 0.817

**Q.** What about the relative viability (NCI-H650; first compound 2.53 µM) of the same compound?
**A.** 0.711

**Q.** What about the relative viability (NCI-H650; first compound 8 µM) of the same compound?
**A.** 0.782

**Q.** What about the relative viability (SK-LU-1; first compound 0.08 µM) of the same compound?
**A.** 1.08

**Q.** And the relative viability (SK-LU-1; first compound 0.8 µM)?
**A.** 1.06

**Q.** What about the relative viability (SK-LU-1; first compound 2.53 µM) of the same compound?
**A.** 0.941

**Q.** What about the relative viability (SK-LU-1; first compound 8 µM) of the same compound?
**A.** 0.922

**Q.** What about the relative viability (LXF-289; first compound 0.08 µM) of the same compound?
**A.** 0.835

**Q.** And the relative viability (LXF-289; first compound 0.8 µM)?
**A.** 0.818

**Q.** And the relative viability (LXF-289; first compound 2.53 µM)?
**A.** 0.884

**Q.** What about the relative viability (LXF-289; first compound 8 µM) of the same compound?
**A.** 0.896

**Q.** And the relative viability (NCI-H460; first compound 0.08 µM)?
**A.** 0.818

**Q.** And the relative viability (NCI-H460; first compound 0.8 µM)?
**A.** 1.04

**Q.** And the relative viability (NCI-H460; first compound 2.53 µM)?
**A.** 1.02

**Q.** And the relative viability (NCI-H460; first compound 8 µM)?
**A.** 0.876

**Q.** And the relative viability (NCI-H2023; first compound 0.08 µM)?
**A.** 0.654

**Q.** What about the relative viability (NCI-H2023; first compound 0.8 µM) of the same compound?
**A.** 0.638

**Q.** And the relative viability (NCI-H2023; first compound 2.53 µM)?
**A.** 0.801

**Q.** What about the relative viability (NCI-H2023; first compound 8 µM) of the same compound?
**A.** 0.609

**Q.** What about the relative viability (NCI-H596; first compound 0.08 µM) of the same compound?
**A.** 1.06

**Q.** What about the relative viability (NCI-H596; first compound 0.8 µM) of the same compound?
**A.** 1.62

**Q.** What about the relative viability (NCI-H596; first compound 2.53 µM) of the same compound?
**A.** 1.2

**Q.** What about the relative viability (NCI-H596; first compound 8 µM) of the same compound?
**A.** 1.01
